The source of these data is patent US8871452B2, “Methods for treatment of cardiovascular disease” (The Brigham and Women's Hospital, Inc., priority 2000, dated 2014).

In one experiment the test system is Fit-1 mRNA expression. Kind of experiment: Northern blot of Fit-1 (T1/ST2) mRNA induction in cultured neonatal rat cardiac myocytes, with or without 8% cyclic mechanical strain. In kind it is cell-based. To be noted: for induction of Fit-1 mRNA expression by 8% mechanical strain: FIG. 4, applied during strain, actinomycin D 5 μg/ml (2 and 4 hours), cyclohexamide 10 μg/ml; for strain-induced induction of Fit-1 mRNA expression / Fit-1 mRNA expression in the absence of strain: FIG. 3, H2O2 100 uM, TIRON 10 mN; for strain-induced induction of Fit-1 mRNA expression: 8% mechanical strain; for induction of Fit-1 mRNA expression in the absence of mechanical strain: FIG. 2, 3 hours, Ang II 50 nM; for induction of Fit-1 mRNA expression in the absence of mechanical strain / rank order potency for the induction of Fit-1 mRNA expression / induction of Fit-1 mRNA expression, agent alone: IL-1β 10 ng/ml; for induction of Fit-1 mRNA expression in the absence of mechanical strain / rank order potency for the induction of T1/ST2 mRNA expression: PMA 200 nM; for rank order potency for the induction of Fit-1 mRNA expression: 8% strain; for rank order potency for the induction of Fit-1 mRNA expression / induction of Fit-1 mRNA expression, agent alone: PMA 100 ng/ml; for induction of Fit-1 mRNA expression, agent alone: no strain; for rank order potency for the induction of T1/ST2 mRNA expression: strain 8%. An excerpt: The approach to mechanical stimulation used an apparatus that has multiple platens that contact the underside of silicone elastomer membranes to apply a spatially isotropic biaxial strain profile to the membrane (Schaffer J L, et al., J Orthop Res, 1993, 12:709-719; and U.S. Provisional Patent Application Ser. No. 60/144,134 filed on Jul. 16, 1999 entitled “AN APPARATUS FOR STUDYING MYOCARDIAL MECHANICAL OVERLOAD HYPERTROPHY AND USES THREFOR, by Richard T. Lee, and bearing and express mail no. EL110243781US). Six individual 78 mm membranes can be stretched at once with varying amplitudes of strain by controlling displacement of each platen with a stepper motor. Measured Green strains are accurate to ˜±0.25% at strains from 1-14% (Cheng G C, et al., Circ Res, 1997, 80:28-36; Brown T D, J Biomechanics, 2000, 33:3-14). Throughout this study, 8% biaxial strain was used.
Neonatal rat ventricular myocytes (NRVM) from 1-day old Sprague-Dawley rats were isolated by previously described methods (Springhorn J P, and Claycomb W C., Biochem J, 1989; 258:73-78; Arstall M A, et al., J Mol Cell Cardiol, 1998, 30:1019-25). NRVM were plated on the coated membrane dish at a density of 2,000,000 cells/dish in DMEM containing 7% FCS and incubated 24 h. Approximate cell confluence was 85-90%. NRVM were then made quiescent by washing with 10 ml of Hanks' balanced salt solution (HBSS, 138 mM NaCl, 5.3 mM KCl, 4.0 mM NaHCO3, 1.3 mM CaCl2, 0.5 mM MgCl2, 0.4 mM MgSO4, 0.4 mM KH2PO4, 0.3 mM Na2HPO4, 5.6 mM glucose; Life Technologies, Inc., Rockville, Md.) twice and incubating with 26 ml of DMEM containing 0.2% FCS for 48-72 hours.
The cDNA clones for differentially expressed genes were obtained by PCR using the GenBank sequences. Each clone was sequenced from both 5′ and 3′ ends to confirm identity. Positive elements in the DNA microarray were confirmed by Northern blot hybridization analysis in at least three independent experiments using three different sources of NRVMs. Total RNA was isolated by the guanidium thiocyanate and phenol chloroform method (Chomcyznski, et al., Anal. Biochem., 1987, 162:156-159). For Northern blotting, 15 μg RNA was loaded on a 1.0% agarose-formaldehyde gel (2.0 mol/l), transferred to a nylon membrane (Amersham Pharmacia Biotech AB, Piscataway, N.J.), and UV cross-linked with a UV Stratalinker (Stratagene, Inc., La Jolla, Calif.). Each probe was hybridized with ExpressHyb solution (Clontech Labs., Inc., Palo Alto, Calif.) at 68° C. for 1 hour. The membrane was washed with 2×SSC, 0.05% SDS solution for 30 to 40 minutes and three times at room temperature and 0.1×SSC, 0.1% SDS solution with continuous shaking at 50° C. for 40 minutes. The membrane was exposed to film at −80° C., and radiographs were scanned and analyzed with Optimas 5.0 software (Optimas Co./Media Cybernetics, Silver Springs, Md.). Densitometric units were normalized to the ethidium-stained 28S ribosomal subunit on the membrane.
T1/ST2 mRNA is induced by mechanical strain in cultured neonatal cardiac myocytes. Neonatal rat ventricular myocytes were isolated by collagenase digestion, plated on fibronectin-coated silicone membrane dishes at a density of 3.5 million cells/dish in 13 ml media as previously described (Yamamoto K, et al. J Biol Chem. 1999; 274:21840-21846). This technique yields cultures with ≧95% myocytes. Mechanical deformation was applied using a device that provides uniform biaxial cyclic strain as previously described (Yamamoto K, et al. J Biol Chem. 1999; 274:21840-21846). RNA was extracted (Qiagen) and Northern blotting was performed using as a probe a ^32P-labelled 600 bp PCR fragment specific to rat T1/ST2. Maximal induction occurs at 3 hours, is sustained for 9 hours and declines by 15 hours.

A further experiment deals with T1/ST2 mRNA. Kind of experiment: T1/ST2 mRNA induction in human adult vascular smooth muscle cells. In kind it is cell-based.
[1] abbreviates: FIG. 9, interleukin-1 10 ng/ml, 1 and 3 hours.

Entries after “also recorded” stand apart in the source; their conditions may differ. Numbered stars: 1 amine (or outer) side, 2 acyl side, 3 side chain; on linkers, the order of the positions; unused ones are H or OH. Bridge positions count the residues as written; N and C are the ends. Square brackets hold non-standard residues; d marks the D form. Peptide text beside a SMILES is read from it. I, II: the chains in the order shown. Actinocin(9to1) = Cc1c2oc3c(C)ccc(C(=O)[*:1])c3nc-2c(C(=O)[*:2])c(N)c1=O; NMeV = CN[C@H](C(=O)O)C(C)C; Sar = CNCC(=O)O

For `Cc1c2oc3c(C)ccc(C(=O)N[C@@H]4C(=O)N[C@H](C(C)C)C(=O)N5CCC[C@H]5C(=O)N(C)CC(=O)N(C)[C@@H](C(C)C)C(=O)O[C@@H]4C)c3nc-2c(C(=O)N[C@@H]2C(=O)N[C@H](C(C)C)C(=O)N3CCC[C@H]3C(=O)N(C)CC(=O)N(C)[C@@H](C(C)C)C(=O)O[C@@H]2C)c(N)c1=O` [Actinomycin D, actinomycin D] (I: T[dV]P[Sar][NMeV] / II: T[dV]P[Sar][NMeV]; ester I:1-I:C, II:1-II:C; linker I:N-II:N via Actinocin(9to1)), the “induction of Fit-1 mRNA expression by 8% mechanical strain” value in the experiment with Fit-1 mRNA expression is on record as “blocked”.
As to `OO` [H2O2, hydrogen peroxide], in the experiment with Fit-1 mRNA expression, the “strain-induced induction of Fit-1 mRNA expression” value is “blocks” and the “Fit-1 mRNA expression in the absence of strain” value is reported as “does not induce”.
Take `CCCCCCCCCCCCCC(=O)O[C@@H]1[C@@H](C)[C@@]2(O)[C@@H](C=C(CO)C[C@]3(O)C(=O)C(C)=C[C@@H]23)[C@@H]2C(C)(C)[C@]12OC(C)=O` [PMA]: in the experiment on T1/ST2 mRNA, the “induction of T1/ST2 mRNA” value is “not”. Moreover, in the experiment with Fit-1 mRNA expression, the “induction of Fit-1 mRNA expression in the absence of mechanical strain” value (from here on “induction … of mechanical strain”) is recorded as “associated with an induction”. Further, in the experiment on Fit-1 mRNA expression (FIG. 5), the “rank order potency for the induction of Fit-1 mRNA expression” value is given as “PMA>strain>IL-1β” and the “induction of Fit-1 mRNA expression, agent alone” value is listed as “strongest induction”. The “rank order potency for the induction of T1/ST2 mRNA expression” value in the experiment with Fit-1 mRNA expression (setting [1]) is on record as “PMA>strain>interleukin-1β; also recorded: PMA>strain>IL-1”.
With `O=S(=O)(O)c1cc(O)c(O)c(S(=O)(=O)O)c1` [TIRON], in the experiment on Fit-1 mRNA expression, the “strain-induced induction of Fit-1 mRNA expression” value is given as “slightly attenuated” and the “Fit-1 mRNA expression in the absence of strain” value is “slightly attenuated”.
On to `C[C@@H]1C[C@@H]([C@H](O)CC2CC(=O)NC(=O)C2)C(=O)[C@@H](C)C1` [cyclohexamide], for which the “induction of Fit-1 mRNA expression by 8% mechanical strain” value in the experiment with Fit-1 mRNA expression is “blocked”.
Consider IL-1β: interleukin-1β, cytokine, for which the “induction of T1/ST2 mRNA” value in the experiment with T1/ST2 mRNA was “induced”. Also, in the experiment with Fit-1 mRNA expression, the “induction of T1/ST2 RNA, agent alone” value is recorded as “induce” and the “induction … of mechanical strain” value is given as “associated with an induction”. Besides, the “induction of Fit-1 by mechanical strain in the presence of IL-1β” value in the experiment with Fit-1 mRNA expression (FIG. 5, 8% strain plus IL-1β 10 ng/ml) was “not further increased”. For the same compound, in the experiment on Fit-1 mRNA expression (FIG. 5), the “rank order potency for the induction of Fit-1 mRNA expression” value is given as “PMA>strain>IL-1β” and the “induction of Fit-1 mRNA expression, agent alone” value is on record as “induced”. For the same compound, the “induction of T1/ST2 by mechanical strain in the presence of interleukin-1β” value with Fit-1 mRNA expression (FIG. 9, 8% strain plus interleukin-1 10 ng/ml, 1 and 3 hours) is recorded as “not further increased”. Moreover, the “rank order potency for the induction of T1/ST2 mRNA expression” value in the experiment with Fit-1 mRNA expression (setting [1]) is reported as “PMA>strain>interleukin-1β”. Also, in the experiment with Fit-1 mRNA expression (FIG. 9, interleukin-1 10 ng/ml, 1 and 3 hours, listed as IL-1), the “rank order potency for the induction of T1/ST2 mRNA expression” value is reported as “PMA>strain>IL-1”. For the same compound, in the experiment with Fit-1 mRNA expression (FIG. 10, interleukin-1 10 ng/ml, 4 hours), the “induction of T1/ST2 mRNA in the presence of infection with control adenovirus” value is recorded as “induced”.
On to “angiotensin II (DRVYIHPF; Angiotensin-2; UniProt P01019 25-32, looked up)”, for which the “induction … of mechanical strain” value with Fit-1 mRNA expression is “did not induce”.
Turning to tumor necrosis factor, the “induction of T1/ST2 mRNA” value in the experiment with T1/ST2 mRNA was “not”.
